Measurements taken from ChEMBL document CHEMBL1201862, “PubChem BioAssay data set” (2004).
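Where inhibition never reached the appropriate level, the endpoint shown equals the highest concentration tested. Otherwise, values were interpolated linearly from a five-concentration, 48-hour dose response in 96-well plates. Abbreviation: GI50, concentration required for 50% inhibition of growth.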 Activity calls are given as the source filed them. Cut-off read from the data, not from the text of the source: active = GI50 up to about 1.1 µM and inactive = higher. Where a SMILES comes first, the peptide text is derived from it. Bridges are numbered along the chain shown (N, C = ends). [ ]: non-standard residue; d: D form. The star is where a group is joined. ξ: configuration not given here. ξNMePhe(4-NMe2) = CNC(Cc1ccc(N(C)C)cc1)C(=O)O; Picolinoyl(3-OH) = O=C(c1ncccc1O)*; ξPip(4-oxo) = O=C1CCNC(C(=O)O)C1; Phg = N[CH](C(=O)O)c1ccccc1; Abu = CC[CH](N)C(=O)O

Assays:
Assay in all cases: NCI-60 cell line screen, 48 h
UACC-62 = system: UACC-62
TK-10 = system: TK-10
MDA-MB-435 = system: MDA-MB-435
OVCAR-5 = system: OVCAR-5
SK-MEL-5 = system: SK-MEL-5
CCRF-CEM = system: CCRF-CEM
HCT-116 = system: HCT-116
NCI/ADR-RES = system: NCI/ADR-RES
OVCAR-4 = system: OVCAR-4
CAKI-1 = system: CAKI-1
SNB-19 = system: SNB-19
786-0 = system: 786-0
MDA-N = system: MDA-N
U-251 = system: U-251
M14 = system: M14
K562 = system: K562
HL-60 = system: HL-60
MCF7 = system: MCF7
SK-OV-3 = system: SK-OV-3
T47D = system: T47D
BT-549 = system: BT-549
UO-31 = system: UO-31
HCC 2998 = system: HCC 2998
NCI-H23 = system: NCI-H23
ACHN = system: ACHN
HT-29 = system: HT-29
SK-MEL-2 = system: SK-MEL-2
SF-539 = system: SF-539
HCT-15 = system: HCT-15
MDA-MB-231 = system: MDA-MB-231
OVCAR-8 = system: OVCAR-8
SW-620 = system: SW-620
SK-MEL-28 = system: SK-MEL-28
SF-268 = system: SF-268
Hs-578T = system: Hs-578T
MOLT-4 = system: MOLT-4
SR = system: SR
HOP-92 = system: HOP-92
NCI-H522 = system: NCI-H522
LOX IMVI = system: LOX IMVI
OVCAR-3 = system: OVCAR-3
NCI-H460 = system: NCI-H460
SF-295 = system: SF-295
EKVX = system: EKVX
HOP-62 = system: HOP-62
COLO 205 = system: COLO 205
IGROV-1 = system: IGROV-1
NCI-H226 = system: NCI-H226
Malme-3M = system: Malme-3M
A549 = system: A549
RPMI-8226 = system: RPMI-8226
SNB-75 = system: SNB-75
DU-145 = system: DU-145
SN12C = system: SN12C
A498 = system: A498
KM12 = system: KM12
PC-3 = system: PC-3
RXF 393 = system: RXF 393
UACC-257 = system: UACC-257

Measured: GI50

C(=C\c1ccccc1)/C=N/c1nc2cc3sc(/N=C/C=C/c4ccccc4)nc3cc2s1
active: COLO 205 1.06 µM | NCI-H226 0.813 µM
33.7 µM: HCT-15
inactive: UACC-62 99.8 µM | TK-10 > 88.9 µM | MDA-MB-435 > 100 µM | OVCAR-5 > 78.7 µM | SK-MEL-5 > 28.9 µM | CCRF-CEM 8.47 µM | HCT-116 28.5 µM | NCI/ADR-RES > 100 µM | OVCAR-4 > 100 µM | CAKI-1 70.6 µM | SNB-19 > 100 µM | 786-0 > 100 µM | MDA-N > 72.1 µM | U-251 25 µM | M14 > 100 µM | K562 43.3 µM | HL-60 12.1 µM | MCF7 12.6 µM | SK-OV-3 > 100 µM | T47D 47 µM | BT-549 > 96.2 µM | UO-31 34.4 µM | HCC 2998 > 100 µM | NCI-H23 42.2 µM | ACHN > 55.8 µM | HT-29 30.6 µM | SK-MEL-2 > 100 µM | SF-539 > 100 µM | MDA-MB-231 > 100 µM | OVCAR-8 > 92.3 µM | SW-620 > 45.3 µM | SK-MEL-28 > 100 µM | SF-268 > 63.4 µM | Hs-578T > 100 µM | MOLT-4 7.35 µM | SR 2.95 µM | HOP-92 > 100 µM | NCI-H522 18.2 µM | LOX IMVI 29.9 µM | OVCAR-3 24.3 µM | NCI-H460 4.16 µM | SF-295 > 78 µM | EKVX 73.1 µM | HOP-62 99.3 µM | IGROV-1 > 63.2 µM | Malme-3M > 100 µM | A549 12.1 µM | RPMI-8226 > 87.7 µM | SNB-75 > 100 µM | DU-145 > 100 µM | SN12C 69.2 µM | A498 > 42.5 µM | KM12 76.2 µM | PC-3 > 79.8 µM | RXF 393 > 100 µM | UACC-257 > 100 µM

CC1=C/C(O)CC(=O)Cc2nc(co2)C(=O)N2CCC=C2C(=O)OC(C(C)C)C(C)/C=C/C(=O)NC\C=C\1.CCC1NC(=O)C(NC(=O)c2ncccc2O)C(C)OC(=O)C(c2ccccc2)NC(=O)C2CC(=O)CCN2C(=O)C(Cc2ccc(N(C)C)cc2)N(C)C(=O)C2CCCN2C1=O (stereo unspecified) ({Picolinoyl(3-OH)}-T[Abu]P[ξNMePhe(4-NMe2)][ξPip(4-oxo)][Phg]; ester 1-C; configuration not given here)
9.51 µM: HCT-15
inactive: UACC-62 13 µM | TK-10 27.2 µM | MDA-MB-435 12 µM | OVCAR-5 31.5 µM | SK-MEL-5 4.91 µM | CCRF-CEM 1.9 µM | HCT-116 6.4 µM | NCI/ADR-RES 25.3 µM | OVCAR-4 12.1 µM | CAKI-1 28.2 µM | SNB-19 13.1 µM | 786-0 15.5 µM | MDA-N 8.07 µM | U-251 11.7 µM | M14 15 µM | K562 4.72 µM | HL-60 3.71 µM | MCF7 7.29 µM | SK-OV-3 25.5 µM | T47D 15.4 µM | BT-549 16.9 µM | UO-31 20.8 µM | HCC 2998 11.6 µM | NCI-H23 7.05 µM | ACHN 7.96 µM | HT-29 6.41 µM | SK-MEL-2 7.21 µM | SF-539 17.5 µM | MDA-MB-231 7.55 µM | OVCAR-8 25.6 µM | SW-620 7.5 µM | SK-MEL-28 13.7 µM | SF-268 24.4 µM | Hs-578T 18.2 µM | MOLT-4 3.64 µM | SR 3.86 µM | HOP-92 3.78 µM | NCI-H522 9.1 µM | LOX IMVI 3.87 µM | OVCAR-3 8.04 µM | NCI-H460 3.75 µM | SF-295 3.66 µM | EKVX 13.6 µM | HOP-62 14.6 µM | COLO 205 6.59 µM | IGROV-1 11.4 µM | NCI-H226 13.6 µM | Malme-3M 12.8 µM | A549 16.7 µM | RPMI-8226 4.68 µM | SNB-75 24.7 µM | DU-145 7.33 µM | SN12C 9.35 µM | A498 10 µM | KM12 10.4 µM | PC-3 8.07 µM | RXF 393 11.4 µM | UACC-257 6.08 µM

OC1c2c(ccc3c2CCC3)CC12Cc1ccccc1C2 (stereo unspecified)
inactive: UACC-62 15.4 µM | TK-10 14.8 µM | MDA-MB-435 15.7 µM | OVCAR-5 17.2 µM | SK-MEL-5 15.6 µM | CCRF-CEM 23.2 µM | HCT-116 16 µM | NCI/ADR-RES 14.3 µM | OVCAR-4 16.4 µM | CAKI-1 16.7 µM | SNB-19 15.7 µM | 786-0 17.1 µM | MDA-N 15.5 µM | U-251 15.9 µM | M14 15.3 µM | K562 17.1 µM | HL-60 15.9 µM | MCF7 18 µM | SK-OV-3 15.7 µM | T47D 16.5 µM | BT-549 16.9 µM | UO-31 14.2 µM | HCC 2998 13.5 µM | NCI-H23 16.8 µM | ACHN 16.8 µM | HT-29 17 µM | SK-MEL-2 15.3 µM | SF-539 21.3 µM | MDA-MB-231 15.2 µM | OVCAR-8 17.7 µM | SW-620 17.7 µM | SK-MEL-28 16.6 µM | SF-268 14.7 µM | Hs-578T 16.6 µM | MOLT-4 26.6 µM | SR 10.9 µM | HOP-92 13 µM | NCI-H522 16.3 µM | LOX IMVI 15.9 µM | OVCAR-3 13.6 µM | NCI-H460 17.1 µM | SF-295 17.1 µM | EKVX 16.4 µM | HOP-62 16.4 µM | COLO 205 16.3 µM | IGROV-1 17.7 µM | NCI-H226 13.4 µM | Malme-3M 12 µM | A549 17.1 µM | RPMI-8226 14.7 µM | SNB-75 13.8 µM | DU-145 16.3 µM | SN12C 15.3 µM | A498 16.2 µM | KM12 14.9 µM | PC-3 15.3 µM | RXF 393 13.8 µM | UACC-257 14.1 µM
16.5 µM: HCT-15

N#C[BH2-][n+]1ccc(C(=O)NNCC(F)(F)F)cc1
inactive: UACC-62 > 100 µM | TK-10 > 100 µM | MDA-MB-435 > 100 µM | OVCAR-5 > 100 µM | SK-MEL-5 > 100 µM | CCRF-CEM > 100 µM | HCT-116 > 100 µM | NCI/ADR-RES > 100 µM | OVCAR-4 > 100 µM | CAKI-1 > 100 µM | SNB-19 > 100 µM | 786-0 > 100 µM | MDA-N > 100 µM | U-251 > 100 µM | M14 > 100 µM | K562 > 100 µM | HL-60 > 100 µM | MCF7 > 100 µM | SK-OV-3 > 100 µM | T47D > 100 µM | BT-549 > 100 µM | UO-31 > 100 µM | HCC 2998 > 100 µM | NCI-H23 > 100 µM | ACHN > 100 µM | HT-29 > 100 µM | SK-MEL-2 > 100 µM | SF-539 > 100 µM | MDA-MB-231 > 100 µM | OVCAR-8 > 100 µM | SW-620 > 100 µM | SK-MEL-28 > 100 µM | SF-268 > 100 µM | Hs-578T > 100 µM | MOLT-4 > 100 µM | SR > 100 µM | HOP-92 > 100 µM | NCI-H522 > 100 µM | LOX IMVI > 100 µM | OVCAR-3 > 100 µM | NCI-H460 > 100 µM | SF-295 > 100 µM | EKVX > 100 µM | HOP-62 > 100 µM | COLO 205 > 100 µM | IGROV-1 > 100 µM | NCI-H226 > 100 µM | Malme-3M > 100 µM | A549 > 100 µM | RPMI-8226 > 100 µM | SNB-75 > 100 µM | DU-145 > 100 µM | SN12C > 100 µM | A498 > 100 µM | KM12 > 100 µM | PC-3 > 100 µM | RXF 393 > 100 µM | UACC-257 > 100 µM
> 100 µM: HCT-15
